Test results taken from patent US11117871B2, “Crystalline forms of GSK1278863, preparation method and pharmaceutical use thereof” (GlaxoSmithKline Intellectual Property (No.2) Limited, priority 2017, dated 2021).
Converted amounts (≈) assume the structure as drawn.

Tests used:
Type in all cases: physicochemical
[1] = Hygroscopicity by dynamic vapor sorption (DVS); conditions: for Hygroscopicity (in words): 25° C./80% RH; for Weight gain under 80% Relative Humidity: DVS, 25° C., 80% RH
Procedure: Dynamic vapor sorption (DVS) was applied to test hygroscopicity of Form CS1, Form CS9 and the prior art solid with about 10 mg of samples under 25 °C. The DVS plots of Form CS1, Form CS9 and the prior art solid are substantially as depicted in FIG. 10, FIG. 11 and FIG. 12.

[2] = Kinetic solubility in SGF, FeSSIF, FaSSIF and pure water (HPLC); conditions: for Solubility (in words): SGF, FeSSIF, FaSSIF and pure water
From the text: Solubility test method according to the Chinese Pharmacopoeia was used and different pHs of different organs in human body were considered. According to the above two references, a solvent media set with four pH values range from 1.2 to 7.5 were designed in the present disclosure. Specifically: SGF (Simulated gastric fluids, pH=1.8), FeSSIF (Fed state simulated intestinal fluids, pH=5.0), FaSSIF (Fasted state simulated intestinal fluids, pH=6.5), and pure water were used.
Form CS1 and Form CS9 of the present disclosure were suspended into SGF, FeSSIF, FaSSIF and H2O to obtain saturated solutions. The solutions were sampled at fixed time points. Concentrations of the saturated solutions were measured by HPLC to measure the kinetic solubility of Form CS1 and Form CS9.

[3] = Flowability by compressibility index (USP 1174); conditions: for Bulk density: 5 mL measuring cylinder, before tapping; for Tapped density: 500 taps; for Compressibility index: (Tapped Density−Bulk Density)/Tapped Density×100%; for Flowability: scale of USP 1174 by compressibility index
Procedure: According to the United States Pharmacopeia (USP) 1174, flowability of Form CS1 and Form CS9 of the present disclosure were evaluated by the compressibility index. The bulk density, tapped density of Form CS1 and Form CS9 were tested, and compressibility index was calculated.
1. Test Method • Samples: Form CS1 and Form CS9 • Instrument: Tap density tester • Utensil: 5 mL measuring cylinder • Number of tapping: 500 times • Bulk density=m/vQ (Mass/volume before tapping) • Tapped density=m/vt (Mass/volume after tapping)
2. Calculation Formula: Compressibility Index (%)=(Tapped Density−Bulk Density)/Tapped Density×100%

[4] = In vitro dissolution of tablets (Chinese Pharmacopoeia 2015 <0931>, paddle); conditions: tablet, pH=6.8 phosphate buffer + 1% SDS, 37° C., 75 rpm
Procedure: (§1) Form CS1 or Form CS9 of GSK1278863, microcrystalline cellulose, croscarmellose sodium and magnesium stearate were weighed according to formulation in Table 14 and blended for 2 minutes. The tablets were prepared using a manual tablet press at 5 KN±1 KN pressure with a φ7 mm round tooling. The tablets tablet weight is 100 mg±1 mg. The obtained tablets were packed in 35 cc HDPE bottles (one tablet per bottle) with 1 g desiccant. The bottles were sealed with a sealer.
In vitro dissolution test was performed on obtained tablets and dissolution method according to Chinese Pharmacopoeia 2015<0931> was used. The conditions are as follows:
Medium: pH=6.8 phosphate buffer solution+1% sodium dodecyl sulfate aqueous solution

[5] = Stability of crystalline form in drug products (tablets); conditions: for Crystalline form before and after formulation process (in words): blending and tableting at 5 KN±1 KN; for Crystalline form of drug substance in the drug products after storage (in words): tablets, 40° C., 1 month
Procedure: as §1
The above obtained tablets were stored under 40° C./[…] condition for 1 month. […] The results are shown in Table 16, which indicate that Form CS1 and Form CS9 have good stability in the drug products.

[6] = Physical stability of drug substance on storage (XRPD before/after); conditions: for Solid form after storage: 3 months, XRPD; for Time for which crystalline form of drug substance doesn't change on storage: 40° C./75% RH and 60° C./75% RH
Procedure: Form CS1 was stored under different conditions of 25° C./60% RH, 40° C./75% RH and 60° C./75% RH. The XRPD pattern overlay before and after being stored is substantially as depicted in FIG. 13, FIG. 14 and FIG. 15.
Form CS9 was stored under different conditions of 25° C./60% RH, 40° C./75% RH and 60° C./75% RH. The XRPD pattern overlay before and after being stored is substantially as depicted in FIG. 16, FIG. 17 and FIG. 18.

| Structure (SMILES) | Hygroscopicity (in words) [1] | Weight gain under 80% Relative Humidity [1] | Kinetic solubility ([2]; FaSSIF (pH=6.5), 24 h) | Kinetic solubility ([2]; H2O, 24 h) | Kinetic solubility ([2]; SGF (pH=1.8), 24 h) | Solubility (in words) [2] | Bulk density [3] | Tapped density [3] | Compressibility index [3] | Flowability [3] | Crystalline form before and after formulation process (in words) [5] | Crystalline form of drug substance in the drug products after storage (in words) [5] | Solid form after storage ([6]; 25° C./60% RH) | Time for which crystalline form of drug substance doesn't change on storage ([6]; 25° C./60% RH) | Solid form after storage ([6]; 40° C./75% RH) | Solid form after storage ([6]; 60° C./75% RH) | also measured |
| --- | --- | --- | --- | --- | --- | --- | --- | --- | --- | --- | --- | --- | --- | --- | --- | --- | --- |
| O=C(O)CNC(=O)C1C(=O)N(C2CCCCC2)C(=O)N(C2CCCCC2)C1=O [The prior art solid, reference compound] | higher hygroscopicity | 1.14% |  |  |  |  |  |  |  |  |  |  |  |  |  |  | Weight gain under 80% Relative Humidity ([1]; listed as prior art solid): 1.14% |
| O=C(O)CNC(=O)C1C(=O)N(C2CCCCC2)C(=O)N(C2CCCCC2)C1=O [Form CS1] | not hygroscopic | 0.53% | 27 µg/mL | 16 µg/mL | 3 µg/mL | good solubility | 0.15 g/mL | 0.19 g/mL | 21% | Passable (21%-25%, passable flowability) | doesn't change | does not change | Form CS1 | at least 3 months | Form CS1 | Form CS1 | solubility kinetic at 1 h ([2]; FaSSIF (fasted state simulated intestinal fluid), pH 6.5, fassif, thermodynamic from solid, FaSSIF (pH=6.5), 1 h): 63 µg/mL (≈ 160 µM); solubility kinetic at 4 h ([2]; FaSSIF (fasted state simulated intestinal fluid), pH 6.5, fassif, thermodynamic from solid, FaSSIF (pH=6.5), 4 h): 50 µg/mL (≈ 127 µM); solubility kinetic at 1 h ([2]; FeSSIF (fed state simulated intestinal fluid), pH 5, fessif, thermodynamic from solid, FeSSIF (pH=5.0), 1 h): 190 µg/mL (≈ 483 µM); solubility kinetic at 4 h ([2]; FeSSIF (fed state simulated intestinal fluid), pH 5, fessif, thermodynamic from solid, FeSSIF (pH=5.0), 4 h): 190 µg/mL (≈ 483 µM); solubility kinetic at 24 h ([2]; FeSSIF (fed state simulated intestinal fluid), pH 5, fessif, thermodynamic from solid, FeSSIF (pH=5.0), 24 h): 160 µg/mL (≈ 407 µM); solubility kinetic at 1 h ([2]; SGF (simulated gastric fluid), pH 1.8, simulated gastric fluid, thermodynamic from solid, SGF (pH=1.8), 1 h): 3.1 µg/mL (≈ 7.88 µM); solubility kinetic at 4 h ([2]; SGF (simulated gastric fluid), pH 1.8, simulated gastric fluid, thermodynamic from solid, SGF (pH=1.8), 4 h): 3.1 µg/mL (≈ 7.88 µM); solubility kinetic at 1 h ([2]; pure water, water, thermodynamic from solid, H2O, 1 h): 14 µg/mL (≈ 35.6 µM); solubility kinetic at 4 h ([2]; pure water, water, thermodynamic from solid, H2O, 4 h): 26 µg/mL (≈ 66.1 µM); Cumulative drug release ([4]; 5 min): 0.0%; Cumulative drug release ([4]; 10 min): 67.7%; Cumulative drug release ([4]; 20 min): 75.8%; Cumulative drug release ([4]; 30 min): 84.8%; Cumulative drug release ([4]; 45 min): 90.1%; Cumulative drug release ([4]; 60 min): 95.2%; Cumulative drug release ([4]; 90 min): 98.3%; Cumulative drug release ([4]; 120 min): 102.5% |
| O=C(O)CNC(=O)C1C(=O)N(C2CCCCC2)C(=O)N(C2CCCCC2)C1=O [Form CS9] | not hygroscopic | 0.22% | 81 µg/mL | 60 µg/mL | 9.3 µg/mL | good solubility | 0.11 g/mL | 0.14 g/mL | 21% | Passable (21%-25%, passable flowability) | doesn't change | does not change | Form CS9 | at least 3 months | Form CS9 | Form CS9 | Kinetic solubility ([2]; FaSSIF (pH=6.5), 1 h): 58 µg/mL; Kinetic solubility ([2]; FaSSIF (pH=6.5), 4 h): 81 µg/mL; Kinetic solubility ([2]; FeSSIF (pH=5.0), 1 h): 150 µg/mL; Kinetic solubility ([2]; FeSSIF (pH=5.0), 4 h): 170 µg/mL; Kinetic solubility ([2]; FeSSIF (pH=5.0), 24 h): 140 µg/mL; Kinetic solubility ([2]; H2O, 1 h): 20 µg/mL; Kinetic solubility ([2]; H2O, 4 h): 38 µg/mL; Kinetic solubility ([2]; SGF (pH=1.8), 1 h): 3.9 µg/mL; Kinetic solubility ([2]; SGF (pH=1.8), 4 h): 4.2 µg/mL |
